Test results published in patent EP0560274B1, “Antiherpes peptide derivatives having a ureido N-terminus” (priority 1992, dated 1993).
Where two headings read alike, the source gives them in different places. *1 amine or outer side, *2 acyl side, *3 side chain or, on linkers, in order; H or OH if unused. Where a SMILES comes first, the peptide text is derived from it. [ ]: non-standard residue; d: D form. The star is where a group is joined. Gly(1-adamantyl) = N[C@H](C(=O)O)C12CC3CC(CC(C3)C1)C2; Asp(3,3-(CH2)4) = N[C@H](C(=O)O)C1(C(=O)O)CCCC1; tBuAla = CC(C)(C)C[C@H](N)C(=O)O; Tle = CC(C)(C)[C@H](N)C(=O)O; NH(3-pentyl) = CCC(CC)N*; Pyrrolidide = C1CCN(*)C1; X2 = CC(C)(C)CC(C)(C)N*; CO = O=C([*:1])[*:2]; X1 = CCCC1(N*)CCCC1; X4 = CCCC(CCC)N*

Test system: Herpes Simplex Virus (HSV-2)
Assay type: cell-based
Procedure: BHK-21/C13 cells (ATCC CCL 10) are incubated for two days in 150 cm^2 T-flasks (1.5 x 10^6 cells/flask) with alpha-MEM medium (Gibco Canada Inc., Burlington, Ontario, Canada) supplemented with 8% (v/v) fetal bovine serum (FBS, Gibco Canada Inc.). The cells are trypsinized and then transferred to fresh media in a 24 well plate to give 2.5 x 10^5 cells in 750 µL of media per well. The cells are incubated at 37° for a period of 6 h to allow them to adhere to the plate. Thereafter, the cells are washed once with 500 µL of alpha-MEM supplemented with 0.5% (v/v) FBS and then incubated with 750 µL of the same media (low serum) for 3 days. After this period of serum starvation, the low serum medium is removed and the cells are incubated in 500 µL of BBMT for 2 to 3 hours. {BBMT medium is described by P. Brazeau et al., Proc. Natl. Acad. Sci. USA, 79, 7909 (1982).} Thereafter, the cells are infected with HSV-2 (multiplicity of infection = 0.02 PFU/cell) in 100 µL of BBMT medium. (Note: The HSV-2 used was strain HG-52, see Y. Langelier and G. Buttin, J. Gen. Virol., 57, 21 (1981); the virus was stored at -80°.) Following 1 h of virus adsorption at 37°, the media is removed and the cells are washed with BBMT (3 X 250 µL). The cells in each well are incubated with or without (control) appropriate concentrations of the test agent dissolved in 200 µL of BBMT medium. After 29 h of incubation at 37°, the infected cells are harvested by first freezing the plate at -80°, followed by thawing. The cells in each well are scraped off the surface of the well with the help of the melting ice fragments. After complete thawing, the cell suspensions are collected and each well is rinsed with 150 µL of BBMT medium. The viral sample (suspension plus washing) is sonicated gently for 4 min at 4°. Cell debris are removed by centrifugation (1000 times gravity for 10 minutes at 4°). The supernatant is collected and stored at -80° until determination of viral titer.
Viral titration was performed by a modification of the colorimetric assay method of M. Langlois et al., Journal of Biological Standardization, 14, 201 (1986).
More specifically, in a similar manner as described above, BHK-21/C13 cells are trypsinized and transferred to fresh media in a 96 well microtiter plate to give 20,000 cells in 100 µL of media per well. The cells in the prepared plate are incubated at 37° for, 2 h. During that time, the viral sample is thawed and sonicated gently for 15 seconds, and log dilutions of the sample are prepared (1/5 sequential: 50 µL of the sample plus 200 µL of BBMT medium, sequential dilutions being done with a multichannel pipette.
On completion of the above 2 hour incubation of the BHK-21/C13 cells, the media is replaced with alpha-MEM medium supplemented with 3% (v/v) FBS. The cells are now ready to be infected with the various sample dilutions of virus. Aliquots (50 µL) of the various dilutions are transferred into the appropriate wells of the plate. The resulting infected cells are incubated for 2 days at 37°. Then 50 µL of a 0.15% (v/v) solution of neutral red dye in Hank's Balanced Salt Solution (pH 7.3, Gibco Canada Inc.) is added to each well. The prepared plate is incubated for 45 min at 37°. Medium from each well is then aspirated and the cells are washed once with 200 µL of Hank's Balanced Salt Solution. After the wash, the dye is released from the cells by the addition of 100 µL of a 1:1 mixture of 0.1 M Sorensen's citrate buffer (pH 4.2) and ethanol. {Sorensen's citrate buffer is prepared as follows: Firstly, a 0.1 M disodium citrate solution is prepared by dissolving citric acid monohydrate (21 g) in 1 N aqueous NaOH (200 mL) and adding sufficient filtered H2O to make 1 L. Secondly, the 0.1 M disodium citrate solution (61.2 mL) is mixed with 0.1 N aqueous HCl (38.8 mL) and the pH of the resulting solution is adjusted to 4.2 if necessary.} The mixture in the wells is subjected to a gentle vortex action to ensure proper mixing.

Row | EC50 (29 h) [µM] | Compound | EC50 (concentration effecting 50% inhibition of virus replication, BHK-21/C13 cells infected with HSV-2 strain HG-52 (0.02 PFU/cell), 29 h incubation, colorimetric (neutral red) viral titration, read-out: EC50) [µM]
1 | 45 | CCCC1(NC(=O)N[C@H](C(=O)N[C@@H](CC(=O)N2CCCC2)C(=O)N[C@H](C(=O)N[C@@H](CC(C)(C)C)C(=O)OCC)C2(C(=O)O)CCCC2)C(C)(C)C)CCCC1 [(1-propylcyclopentyl)-NHC(O)-Tbg-Asp(pyrrolidino)-Asp(cyPn)-γMeLeu-OEt] ({X1-CO}-[Tle]D(Pyrrolidide)[Asp(3,3-(CH2)4)][tBuAla]-OEt) | –
2 | 190 | CCCC1(NC(=O)N[C@H](C(=O)N[C@@H](CC(=O)N2CCCC2)C(=O)N[C@H](C(=O)N[C@@H](CC(C)(C)C)C(=O)O)C2(C(=O)O)CCCC2)C(C)(C)C)CCCC1 [(1-propylcyclopentyl)NHCO-Tbg-Asp-(pyrrolidino)-Asp(cyPn)-γMeLeu-OH] ({X1-CO}-[Tle]D(Pyrrolidide)[Asp(3,3-(CH2)4)][tBuAla]-OH) | –
3 | 170 | CCC(CC)NC(=O)N[C@H](C(=O)N[C@@H](CC(=O)N1CCCC1)C(=O)N[C@H](C(=O)N[C@@H](CC(C)(C)C)C(=O)O)C1(C(=O)O)CCCC1)C12CC3CC(CC(C3)C1)C2 [Et2CHNHC(O)-NH-(S)-CH(adamantyl)-C(O)-Asp(pyrrolidino)-Asp(cyPn)-γMeLeu-OH] ({NH(3-pentyl)-CO}-[Gly(1-adamantyl)]D(Pyrrolidide)[Asp(3,3-(CH2)4)][tBuAla]-OH) | –
4 | 170 | CCC(CC)NC(=O)N[C@H](C(=O)N[C@@H](CC(=O)N1CCCC1)C(=O)N[C@H](C(=O)N[C@H](CO)CC(C)(C)C)C1(C(=O)O)CCCC1)C12CC3CC(CC(C3)C1)C2 [Et2CHNHC(O)-NH-(S)-CH(adamantyl)-C(O)-Asp(pyrrolidino)-Asp(cyPn)-γMeLeucinol] | –
5 | 350 | CCC(CC)NC(=O)N[C@H](C(=O)N[C@@H](CC(=O)N1CCCC1)C(=O)N[C@H](C(=O)NCCC(C)(C)C)C1(C(=O)O)CCCC1)C(C)(C)C [Et2CHNHC(O)-Tbg-Asp(pyrrolidino)-Asp(cyPn)-NHCH2CH2CMe3] | –
6 | 270 | CCC(CC)NC(=O)N[C@H](C(=O)N[C@@H](CC(=O)N1CCCC1)C(=O)N[C@H](C(=O)NCC(C)(C)C)C1(C(=O)O)CCCC1)C(C)(C)C [Et2CHNHC(O)-Tbg-Asp(pyrrolidino)-Asp(cyPn)-NHCH2CMe3] | –
7 | 180 | CCC(CC)NC(=O)N[C@H](C(=O)N[C@@H](CC(=O)N1CCCC1)C(=O)N[C@H](C(=O)N[C@@H](CC(C)(C)C)C(=O)O)C1(C(=O)O)CCCC1)C(C)(C)C [Et2CHNHC(O)-Tbg-Asp(pyrrolidino)-Asp(cyPn)-γMeLeu-OH] ({NH(3-pentyl)-CO}-[Tle]D(Pyrrolidide)[Asp(3,3-(CH2)4)][tBuAla]-OH) | –
8 | 300 | CCC(CC)NC(=O)N[C@H](C(=O)N[C@@H](CC(=O)N1CCCC1)C(=O)N[C@H](C(=O)N[C@@H](CC(C)C)C(=O)O)[C@H](C(=O)O)C(C)C)C(C)(C)C [Et2CHNHC(O)-Tbg-Asp(pyrrolidino)-Asp{(R)-iPr}-Leu-OH] | –
9 | 190 | CCC(CC)NC(=O)N[C@H](C(=O)N[C@@H](CC(=O)N1CCCC1)C(=O)N[C@H](C(=O)N[C@@H](CC(C)(C)C)C(=O)O)[C@H](C(=O)O)C(C)C)C(C)(C)C [Et2CHNHC(O)-Tbg-Asp(pyrrolidino)-Asp{(R)-iPr}-γMeLeu-OH] | –
10 | 140 | CCC(CC)NC(=O)N[C@H](C(=O)N[C@@H](CC(=O)N1CCCC1)C(=O)N[C@H](C(=O)N[C@H](CO)CC(C)(C)C)[C@H](C(=O)O)C(C)C)C(C)(C)C [Et2CHNHC(O)-Tbg-Asp(pyrrolidino)-Asp{(R)-iPr}-γMeLeucinol] | –
11 | 170 | CCC(CC)NC(=O)N[C@H](C(=O)N[C@@H](CC(=O)N1CCCC1)C(=O)N[C@H](C(=O)N[C@H](CO)CC(C)(C)C)C1(C(=O)O)CCCC1)C(C)(C)C [Et2CHNHCO-Tbg-Asp(pyrrolidino)-Asp(cyPn)-γMeLeucinol] | –
12 | 7 | CCCC(CC)(CCC)NC(=O)N[C@H](C(=O)N[C@@H](CC(=O)N1CCCC1)C(=O)N[C@H](C(=O)N[C@H](CC)C(C)(C)C)C1(C(=O)O)CCCC1)C(C)(C)C [EtPr2CNHC(O)-Tbg-Asp(pyrrolidino)-Asp(cyPn)NH-(R)-CH(Et)CMe3] | –
13 | – | CC(C)(C)C[C@H](NC(=O)[C@@H](NC(=O)[C@H](CC(=O)N1CCCC1)NC(=O)[C@@H](NC(=O)NC(C)(C)CC(C)(C)C)C(C)(C)C)C1(C(=O)O)CCCC1)C(=O)O [Me3CCH2CMe2NHC(O)-Tbg-Asp(pyrrolidino)-Asp(cyPn)-γMeLeu-OH] ({X2-CO}-[Tle]D(Pyrrolidide)[Asp(3,3-(CH2)4)][tBuAla]-OH) | 110
14 | 84 | CCCC(C)(CCC)NC(=O)N[C@H](C(=O)N[C@@H](CC(=O)N1CCCC1)C(=O)N[C@H](C(=O)NCC(C)(C)C)C1(C(=O)O)CCCC1)C(C)(C)C [MePr2CNHC(O)-Tbg-Asp(pyrrolidino)-Asp(cyPn)-NHCH2CMe3] | –
15 | 290 | CCCC(CCC)NC(=O)N[C@H](C(=O)N[C@@H](CC(=O)N1CCCC1)C(=O)N[C@H](C(=O)N[C@H](CO)CC(C)(C)C)C1(C(=O)O)CCCC1)C(C)(C)S [Pr2CHNHC(O)-NH-(R)-CH{C(CH3)2SH}CO-Asp(pyrrolidino)-Asp(cyPn)-γMeLeucinol] | –
16 | 210 | CCCC(CCC)NC(=O)N[C@H](C(=O)N[C@@H](CC(=O)N1CCCC1)C(=O)N[C@H](C(=O)N[C@H](CO)CC(C)(C)C)C1(C(=O)O)CCCC1)C(C)(C)O [Pr2CHNHC(O)-NH-(S)-CH{C(CH3)2OH}-C(O)-Asp(pyrrolidino)-Asp(cyPn) γMeLeucinol] | –
17 | 106 | CCCC(CCC)NC(=O)N[C@H](C(=O)N[C@@H](CC(=O)N1CCCC1)C(=O)N[C@H](C(=O)NCC(C)(C)CC)C1(C(=O)O)CCCC1)C(C)(C)C [Pr2CHNHC(O)-Tbg-Asp(pyrrolidino)-Asp(cyPn)-NHCH2CMe2Et] | –
18 | 150 | CCCC(CCC)NC(=O)N[C@H](C(=O)N[C@@H](CC(=O)N1CCCC1)C(=O)N[C@H](C(=O)NCC(C)(C)C)C1(C(=O)O)CCCC1)C(C)(C)C [Pr2CHNHC(O)-Tbg-Asp(pyrrolidino)-Asp(cyPn)-NHCH2CMe3] | –
19 | 55 | CCCC(CCC)NC(=O)N[C@H](C(=O)N[C@@H](CC(=O)N1CCCC1)C(=O)N[C@H](C(=O)N[C@H](C)C(C)(C)C)C1(C(=O)O)CCCC1)C(C)(C)C [Pr2CHNHC(O)-Tbg-Asp(pyrrolidino)-Asp(cyPn)-NHCH-(R)-CH(Me)CMe3] | –
20 | 80 | CCCC(CCC)NC(=O)N[C@H](C(=O)N[C@@H](CC(=O)N1CCCC1)C(=O)N[C@H](C(=O)N[C@@H](CC(C)(C)C)C(=O)O)C1(C(=O)O)CCCC1)C(C)(C)C [Pr2CHNHC(O)-Tbg-Asp(pyrrolidino)-Asp(cyPn)-γMeLeu-OH] ({X4-CO}-[Tle]D(Pyrrolidide)[Asp(3,3-(CH2)4)][tBuAla]-OH) | –
21 | 160 | CCCC(CCC)NC(=O)N[C@H](C(=O)N[C@@H](CC(=O)C1CCC1)C(=O)N[C@H](C(=O)NCC(C)(C)C)C1(C(=O)O)CCCC1)C(C)(C)C [Pr2CHNHC(O)-Tbg-NH-(S)-CH(2-cyclobutyl-2-oxoethyl)C(O)-Asp(cyPn)-NHCH2CMe3] | –

Row | Compound | EC50 (29 h) [µM] | EC50 (concentration effecting 50% inhibition of virus replication, BHK-21/C13 cells infected with HSV-2 strain HG-52 (0.02 PFU/cell), 29 h incubation, colorimetric (neutral red) viral titration, read-out: EC50) [µM]
22 | CC(C)NC(=O)N[C@H](C(=O)N[C@@H](CC(=O)N1CCCC1)C(=O)N[C@H](C(=O)N[C@H](CO)CC(C)(C)C)C1(C(=O)O)CCCC1)C(C)(C)C [Me2CHNHC(O)-Tbg-Asp(pyrrolidino)-Asp(cyPn)-γMeLeucinol] | 700 | –
23 | CCCC(CCC)NC(=O)N[C@H](C(=O)N[C@@H](CC(=O)N1CCCC1)C(=O)N[C@H](C(=O)N[C@H](CO)CC(C)(C)C)C1(C(=O)O)CCCC1)C(C)(C)C(=O)O [Pr2CHNHC(O)-Asp(diMe)-Asp(pyrrolidino)-Asp(cyPn)-γMeLeucinol] | 170 | –
